The values below come from patent US20220267271A1, “WNT ACTIVATORS AND METHODS OF USE” (MAYO FOUNDATION FOR MEDICAL EDUCATION AND RESEARCH, priority 2019, published 2022).

Series [1] deals with GSK3β. Briefly: GSK3β phosphorylation (Ser9) in N2a cells by Western blotting. The series is classed as cell-based. The note with it: 0.8 μM and 1.6 μM, 24 h. The method, then:
N2a cells were treated with 1011 at the indicated concentrations for 24 h. (A) the levels of β-catenin, GSK3β and GSK3β phosphorylation (Ser9) were examined by Western blotting. (B) the intensity of the GSK3β phosphorylation bands were quantified and normalized to the corresponding signal for total GSK3β. The results represented in the histograms are shown as the mean±SD and are the average of 3 independent experiments. *P<0.05, **P<0.01 versus corresponding control value.
Western blotting: Cells in 6-well plates were lysed in 0.5 ml of lysis buffer (phosphate-buffered saline containing 1% Triton X-100, 1× Proteinase inhibitor cocktail Complete, and 1 mM PMSF) at 4° C. for 15 min. Equal quantities of protein were subjected to SDS-PAGE under reducing conditions. Following transfer to immobilon-P transfer membrane, successive incubations with a primary antibody, and a horseradish peroxidase-conjugated secondary antibody or IRDye® 680RD goat anti-rabbit/mouse secondary antibodies were carried out for 60-120 min at room temperature. The immunoreactive proteins were then detected using the ECL system or the Odyssey infrared imaging system (LI-COR). Films showing immunoreactive bands were scanned by Hp Scanjet 5590.
Background: In western blotting, separated proteins are transferred to a membrane and probed.

Series [2] deals with E. coli: wp2[pKM101]+wp2 uvrA. The series is described as follows: Ames test, bacterial reverse mutation assay, E. coli. Set-up: species or system Escherichia coli. The note with it: 1011 and 1015 at 400 μM, mean ± SD, n = 3. The method, then: (§1) Ames test: According to the OECD Guidelines For Testing Of Chemicals, experiments with the tested agents, positive and negative controls, were conducted in triplicates on 6 tester strains, S. typhimurium: TA98, TA100, TA1535, TA1537 and E. coli: wp2[pKM101]+wp2 uvrA mixed 1:2. Dimethyl sulfoxide (DMSO) was used as the vehicle control for all tester strains in mutagenicity assay with and without metabolic activation. Compounds with known mutagenic activity were used as the positive controls in mutagenicity assay without metabolic activation: 2-nitrofluorene (0.1 μg/plate) for TA98, 4-nitroquinoline N-oxide (0.1 μg/plate) for TA100, sodium azide (0.2 μg/plate) for TA1535, 9-aminoacridine (7.5 μg/plate) for TA1537, and 4-nitroquinoline N-oxide (0.1 μg/plate) for E. coli. 2-Aminoantracene in final concentration 0.4 μg/ml was used as the positive control (the solution of 2-aminoantracene in DMSO was prepared immediately before experiment) in test with metabolic activation. For each experiment tester strain cultures were grown overnight in Oxoid nutrient broth #2 at 37° C. with shaking at 235 rpm to a density of 1-2×10^9 colony forming units/ml (OD600˜1.5). The S9 mix, which is consist of 9000 g supernatant fraction of rat liver homogenate (S9 fraction), was prepared immediately prior to its use in experimental procedure.
(§2) The tester strain (10 μl of overnight culture) was mixed with the test agent (10 μl of the DMSO stock) and GM liquid medium (30 μl) or S9 mix (30 μl). Then, 200 μl of molten top agar supplemented with histidine/biotin (final concentration 0.05 mM) for S. typhimurium and tryptophan (final concentration 0.025 mM) for E. coli were added to the tube (top agar was kept at 44° C. to prevent hardening). The mixed suspension was poured onto the surface of a GM agar plate (2.0 ml of GM agar per plate). After the top agar solidified, the plates were inverted and incubated at 37° C. for 48 hours. The results were expressed as number of revertant colonies per plate. The final concentrations of the test compounds in the mutagenicity assay with all tester strains in both the presence and absence of S9 mix were 400 μM. All concentrations were tested in triplicates.

For series [3], the system named is S. typhimurium TA98. Briefly: Ames test, bacterial reverse mutation assay, TA98. Set-up: species or system Salmonella typhimuium. The note with it: 1011 and 1015 at 400 μM, mean ± SD, n = 3. On the procedure:
as §1, §2
Background: The Ames test detects mutagens through reverse mutation in bacteria.

In series [4] the test system is S. typhimurium TA100. The series is described as follows: Ames test, bacterial reverse mutation assay, TA100. Set-up: species or system Salmonella typhimuium. The note with it: 1011 and 1015 at 400 μM, mean ± SD, n = 3. The method, then: as §1, §2
Series [5] relates to S. typhimurium TA1535. Briefly: Ames test, bacterial reverse mutation assay, TA1535. The note with it: 1011 and 1015 at 400 μM, mean ± SD, n = 3. Set-up: species or system Salmonella typhimuium. The method, then:
as §1, §2

The subject of series [6] is S. typhimurium TA1537. The series is described as follows: Ames test, bacterial reverse mutation assay, TA1537. Set-up: species or system Salmonella typhimuium. The note with it: 1011 and 1015 at 400 μM, mean ± SD, n = 3. The method, then:
as §1, §2

Series [7] deals with E. coli strain TOP10-pTac-lux-CDABE. Briefly: Bacterial cytotoxicity evaluation (luminescence). The note with it: 6.25-400 μM, 4 h. The method, then: In addition, bacterial cytotoxicity evaluation was performed using E. coli strain TOP10-pTac-lux-CDABE, expressing both luciferase (a heterodimer of LuxA and LuxB subunits) and the enzymes required for the production of luciferase substrate (LuxC, LuxD and LuxE). For the experiment, bacterial culture was grown overnight in LB medium at 37° C. with shaking at 250 rpm. The overnight culture was diluted 1:666 into fresh LB medium supplemented with 50 μg/ml kanamycin and incubated at 37° C. and 250 rpm to OD600 0.4-0.5. Serial dilutions of the test compounds in DMSO were prepared (40 mM, 20 mM, 10 mM, 5 mM, 2.5 mM, 1.25 mM, 0.625 mM) and 4 μl aliquots of each solution were transferred into 96-well plate and mixed with 96 μl of 0.9% NaCl. Then, 10 μl of the dilutions were dispensed into the appropriate wells of 384-well white screening microplate. 30 μl aliquots of freshly grown bacterial culture at OD600 of 0.4-0.5 were added to each well with compounds' dilutions (Final concentration of the test compounds were 400 μM, 200 μM, 100 μM, 50 μM, 25 μM, 12.5 μM, 6.25 μM). The plate was incubated for 4 h at 37° C. and the luminescence.

Setting [8] is: with metabolic activation (S9 mix).

For the compound `CC1CCCC(C)N1CCNC(=O)c1ccc(C(=O)Nc2ccccc2N)nc1` (centres unmarked) [Compound 1011], in series [1], the “GSK3β phosphorylation at Ser9” value is “significantly enhanced”. The “Number of revertant colonies per plate, E. coli” value in series [2] (setting [8]) is listed as 9.7 ± 3.2 revertant colonies per plate; in series [2] (without metabolic activation) it was 8.7 ± 2.1 revertant colonies per plate. Besides, the “Number of revertant colonies per plate, TA 98” value was 1.7 ± 2.1 revertant colonies per plate in series [3] (setting [8]) and 1.7 ± 1.5 revertant colonies per plate in series [3] (without metabolic activation). For the same compound, the “Number of revertant colonies per plate, TA100” value was 4.7 ± 2.1 revertant colonies per plate in series [4] (setting [8]) and 4.3 ± 3.5 revertant colonies per plate in series [4] (without metabolic activation). The “Number of revertant colonies per plate, TA1535” value in series [5] (setting [8]) is 0.7 ± 0.6 revertant colonies per plate; in series [5] (without metabolic activation) it was 1.7 ± 2.1 revertant colonies per plate. Besides, the “Number of revertant colonies per plate, TA1537” value in series [6] (setting [8]) was 0.0 ± 0.0 revertant colonies per plate; in series [6] (without metabolic activation), 0.7 ± 0.6 revertant colonies per plate. For the same compound, the “cytotoxicity for bacterial cells” value in series [7] is on record as “no cytotoxicity”.
On to `Nc1ccccc1NC(=O)c1ccc(C(=O)NCC2CCN2C2CCCC2)cn1` (centres unmarked) [Compound 1015], for which the “Number of revertant colonies per plate, E. coli” value is 9.0 ± 2.7 revertant colonies per plate in series [2] (setting [8]) and 5.3 ± 4.7 revertant colonies per plate in series [2] (without metabolic activation). Further, the “Number of revertant colonies per plate, TA 98” value is listed as 0.7 ± 1.2 revertant colonies per plate in series [3] (setting [8]) and 1.3 ± 1.5 revertant colonies per plate in series [3] (without metabolic activation). Besides, the “Number of revertant colonies per plate, TA100” value in series [4] (setting [8]) is listed as 2.0 ± 1.0 revertant colonies per plate; in series [4] (without metabolic activation) it was 1.33 ± 0.6 revertant colonies per plate. In addition, the “Number of revertant colonies per plate, TA1535” value is 0.7 ± 1.2 revertant colonies per plate in series [5] (setting [8]) and 0.3 ± 0.6 revertant colonies per plate in series [5] (without metabolic activation). The “Number of revertant colonies per plate, TA1537” value in series [6] (setting [8]) and in series [6] (without metabolic activation) was 0.0 ± 0.0 revertant colonies per plate throughout. For the same compound, in series [7], the “cytotoxicity for bacterial cells” value was “no cytotoxicity”.
